Residues, ends and D or L forms follow the SMILES beside them. No end group written: not given here.
Columns and labels:
S. aureus aureolysin = biological target: T1, S. aureus aureolysin (Staphylococcus aureus, UniProt P81177); format: in vitro ADME; details: peptide 1 µg, aureolysin 0.1 µg, 30 µl, 3 hours 37°C, SDS-PAGE 16.5% Tris-Tricine, Coomassie
T1 construct: purchased BioCol GmbH (Potsdam, Germany)
Method: (§1) Peptides (1 µg) were incubated at 37°C with S. aureus aureolysin (0.1 µg, 25000 units/mg), S. aureus V8 proteinase (0.1 µg, 2000 mU), both from BioCol GmbH (Potsdam, Germany), or neutrophil elastase (0.4 µg, 29 units/mg; Calbiochem (La Jolla, USA)) in a total volume of 30 µl for 3 hours. The materials were analyzed on 16.5% precast sodium dodecyl sulfate polyacrylamide (SDS-PAGE) Tris-Tricine gels (BioRad, Hercules, USA) and analyzed after staining with Coomassie Blue R-250 (Merck, Darmstadt, Germany).
(§2) Figure 5 (A) Protease sensitivity of peptides. KNK10 and KNK10-WWWWW were incubated with (+) or without (−) the S. aureus enzymes aureolysin (Aur), V8 proteinase (V8), or human leukocyte elastase (HLE), and analyzed by SDS-PAGE (16.5% Tris-Tricine gels). (B) Activities of peptides in an ex vivo skin infection model. Pig skin was inoculated with E. coli ATCC 25922 (upper panel) or S. aureus ATCC 29213 (lower panel). Peptides at 1 mM were added after an incubation time of 4 h. Bacteria were collected after 2 h and cfu determined (mean values are presented, n = 6). Note the logarithmic scale on the y-axis. (In Figure 5B, the difference between tagged and non-tagged peptide is statistically significant in all cases (P<0.002, one way ANOVA).)

S. aureus V8 proteinase = biological target: T2, S. aureus V8 proteinase (Staphylococcus aureus, UniProt P0C1U8); format: in vitro ADME; details: peptide 1 µg, V8 proteinase 0.1 µg, 30 µl, 3 hours 37°C, SDS-PAGE 16.5% Tris-Tricine, Coomassie
T2 construct: purchased BioCol GmbH (Potsdam, Germany)
Method: as §1, §2

human leukocyte elastase = biological target: T3, human leukocyte elastase (Homo sapiens, UniProt P08246); assay: Protease sensitivity assay; format: in vitro ADME; details: peptide 1 µg, neutrophil elastase 0.4 µg, 30 µl, 3 hours 37°C, SDS-PAGE 16.5% Tris-Tricine, Coomassie
T3 construct: purchased Calbiochem (La Jolla, USA)
T3 sequence (P08246 30-267): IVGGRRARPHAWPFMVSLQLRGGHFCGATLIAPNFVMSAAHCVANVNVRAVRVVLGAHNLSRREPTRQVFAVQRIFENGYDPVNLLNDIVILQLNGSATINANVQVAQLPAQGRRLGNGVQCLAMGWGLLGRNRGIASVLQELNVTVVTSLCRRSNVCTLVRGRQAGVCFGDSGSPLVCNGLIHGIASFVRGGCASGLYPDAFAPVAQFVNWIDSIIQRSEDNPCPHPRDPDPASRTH
Method: as §1, §2

[1] = system: Escherichia coli ATCC 25922; format: cell-based; details: ATCC 25922, 100
Method: (§3) Essentially as described earlier, [31] bacteria were grown to mid-logarithmic phase in 10 ml of full-strength (3% w/v) trypticase soy broth (TSB) (Becton-Dickinson, Cockeysville, USA). The microorganisms were then washed once with 10 mM Tris, pH 7.4. Subsequently, 4×10^6 bacterial colony forming units were added to 15 ml of the underlay agarose gel, consisting of 0.03% (w/v) TSB, 1% (w/v) low electroendosmosis type (EEO) agarose (Sigma-Aldrich, St. Louis, USA) and 0.02% (v/v) Tween 20 (Sigma-Aldrich, St. Louis, USA). The underlay was poured into a Ø 144 mm petri dish. After agarose solidification, 4 mm-diameter wells were punched and 6 µl of peptide with required concentration added to each well. Plates were incubated at 37°C for 3 hours to allow diffusion of the peptides. The underlay gel was then covered with 15 ml of molten overlay (6% TSB and 1% Low-EEO agarose in distilled H2O). […]
(§4) Figure 1 Antibacterial and hemolytic activity of peptides. (A) Antibacterial activity of PEPscreen peptides as assessed by radial diffusion assay (RDA) in the presence and absence of 0.15 M NaCl against E. coli ATCC 25922 and S. aureus ATCC 29213, as well as hemolysis. […] The absorbance of hemoglobin release was measured at 540 nm and is expressed as % of Triton X-100 induced hemolysis. […]

[2] = system: Staphylococcus aureus ATCC 29213; format: cell-based; details: ATCC 29213, 100
Method: as §3, §4

T2 sequence (P0C1U8 69-336): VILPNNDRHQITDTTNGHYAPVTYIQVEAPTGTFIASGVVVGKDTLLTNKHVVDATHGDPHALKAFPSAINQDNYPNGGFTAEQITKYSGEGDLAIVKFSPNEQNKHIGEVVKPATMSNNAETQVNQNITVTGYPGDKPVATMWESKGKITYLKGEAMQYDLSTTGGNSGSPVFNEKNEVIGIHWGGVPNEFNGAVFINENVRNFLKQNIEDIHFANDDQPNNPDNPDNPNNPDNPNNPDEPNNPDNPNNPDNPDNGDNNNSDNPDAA
T1 sequence (P81177 209-509): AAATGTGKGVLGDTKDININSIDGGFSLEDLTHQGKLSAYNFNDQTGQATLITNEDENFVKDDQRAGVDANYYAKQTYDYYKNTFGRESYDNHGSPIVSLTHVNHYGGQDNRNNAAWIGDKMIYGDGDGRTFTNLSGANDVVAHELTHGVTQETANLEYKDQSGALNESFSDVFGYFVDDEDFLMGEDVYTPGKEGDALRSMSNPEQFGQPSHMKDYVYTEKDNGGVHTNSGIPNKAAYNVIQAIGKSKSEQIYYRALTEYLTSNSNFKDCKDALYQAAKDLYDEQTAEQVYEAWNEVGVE

CC[C@H](C)[C@H](NC(=O)[C@H](CCCCN)NC(=O)[C@H](CCC(=O)O)NC(=O)[C@H](CCCCN)NC(=O)[C@H](CO)NC(=O)[C@H](CCCCN)NC(=O)[C@H](CCCNC(=N)N)NC(=O)[C@H](Cc1ccccc1)NC(=O)[C@H](Cc1ccccc1)NC(=O)[C@H](CC(=O)O)NC(=O)CNC(=O)[C@H](CC(C)C)NC(=O)[C@@H](N)CC(C)C)C(=O)NCC(=O)N[C@@H](CCCCN)C(=O)N[C@@H](CCC(=O)O)C(=O)N[C@@H](Cc1ccccc1)C(=O)N[C@@H](CCCCN)C(=O)N[C@@H](CCCNC(=N)N)C(=O)N[C@H](C(=O)N[C@H](C(=O)N[C@@H](CCC(N)=O)C(=O)N[C@@H](CCCNC(=N)N)C(=O)N[C@H](C(=O)N[C@@H](CCCCN)C(=O)N[C@@H](CC(=O)O)C(=O)N[C@@H](Cc1ccccc1)C(=O)N[C@@H](CC(C)C)C(=O)N[C@@H](CCCNC(=N)N)C(=O)N[C@@H](CC(N)=O)C(=O)N[C@@H](CC(C)C)C(=O)N[C@H](C(=O)N1CCC[C@H]1C(=O)N[C@@H](CCCNC(=N)N)C(=O)N[C@H](C(=O)N[C@@H](CCC(=O)O)C(=O)N[C@@H](CO)C(=O)O)[C@@H](C)O)C(C)C)[C@@H](C)CC)C(C)C)[C@@H](C)CC [LL-37]
stability against proteolytic degradation (in words) (S. aureus aureolysin): substantial degradation
stability against proteolytic degradation (in words) (S. aureus V8 proteinase): substantial degradation
stability against proteolytic degradation (in words) (human leukocyte elastase): substantial degradation

N[C@@H](Cc1c[nH]c2ccccc12)C(=O)N[C@@H](Cc1c[nH]c2ccccc12)C(=O)N[C@@H](Cc1c[nH]c2ccccc12)C(=O)O [WWW] (H-Trp-Trp-Trp-OH)
clearance zone in RDA [1]: 0 mm
clearance zone in RDA [2]: 0 mm

KNKGKKNGKH [KNK10]
stability against proteolytic degradation (in words) (S. aureus aureolysin): good stability
stability against proteolytic degradation (in words) (S. aureus V8 proteinase): good stability

KNKGKKNGKHWWWWW [KNK10-WWWWW]
stability against proteolytic degradation (in words) (S. aureus aureolysin): good stability
stability against proteolytic degradation (in words) (S. aureus V8 proteinase): good stability
